Reference: patent US8188096B2, “Protein kinase targeted therapeutics” (Northwestern University, priority 2006, dated 2012)

What was measured:
[1] = liver histological toxicity screen after chronic administration; type: in vivo; conditions: after chronic administration (FIG. 4B)
[2] = metabolic stability in human liver microsome screen; type: in vitro ADME; conditions: human liver microsome screen (FIG. 4C)
[3] = system: LPS-induced serum cytokine levels; experiment: LPS-induced serum cytokine levels in acute inflammation mouse model (ELISA); type: in vivo; conditions: 25 mg/kg oral gavage, LPS 10 mg/kg i.p. 30 minutes later, serum after 6 hr, ELISA (FIG. 3)
[4] = plasma levels after oral administration (oral bioavailability); type: in vivo; conditions: plasma levels after oral administration (FIG. 4A)
CK1δ = CK1δ (Homo sapiens, UniProt P48730); experiment: in vitro phosphorylation of a standard protein or peptide substrate by purified kinase; type: biochemical; conditions: 100 mM ATP, increasing concentrations of compound, percent of maximal enzyme activity (FIG. 2)
CK1δ, sequence (P48730 whole entry): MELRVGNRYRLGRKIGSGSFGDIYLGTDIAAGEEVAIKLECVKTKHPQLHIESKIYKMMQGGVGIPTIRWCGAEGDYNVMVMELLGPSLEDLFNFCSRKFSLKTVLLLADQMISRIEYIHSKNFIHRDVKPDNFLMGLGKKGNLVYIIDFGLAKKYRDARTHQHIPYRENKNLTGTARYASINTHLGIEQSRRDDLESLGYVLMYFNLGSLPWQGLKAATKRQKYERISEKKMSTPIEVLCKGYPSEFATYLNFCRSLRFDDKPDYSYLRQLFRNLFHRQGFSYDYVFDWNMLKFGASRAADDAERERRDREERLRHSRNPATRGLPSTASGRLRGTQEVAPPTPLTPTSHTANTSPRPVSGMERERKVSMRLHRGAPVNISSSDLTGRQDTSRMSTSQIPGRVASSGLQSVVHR

Which liver histological toxicity [1] does the source give for c1ccc(-c2nnc(N3CCN(c4ncccn4)CC3)cc2-c2ccncc2)cc1 [MW01-2-069aSRM] here?
Its liver histological toxicity is “no liver histological toxicity”.

What about the metabolic stability [2] of the same compound?
The metabolic stability was “metabolic stability is demonstrated”.

And the “inhibition of LPS-induced serum cytokine levels” value [3]?
The value was “inhibit LPS-induced serum cytokine levels in vivo”.

What about the oral bioavailability [4] of the same compound?
Its oral bioavailability is “oral bioavailability, safety and metabolic stability is demonstrated”.

What about the “inhibition of CK1δ enzyme activity” value (CK1δ) of the same compound?
The value was “inhibit in vitro p38 MAPK and CK1δ enzyme activity in a concentration dependent manner”.
